Laboratory results taken from patent US20240050344A1, “Methods of Enhancing Natural Defense in the Oral Cavity” (Colgate-Palmolive Company, priority 2021, published 2024).

Key:
U937 = test: Phagocytosis assay with Latex Beads-Rabbit IgG-FITC, U937 cells; assay type: cell-based; conditions: FIG. 6
Text: (§1) Phagocytosis is a very important physiological process which is characterized by the ingestion of foreign particles and killing of microorganisms by phagocytic leukocytes (monocytes, macrophages, granulocytes). The phagocytic leukocytes are part of a first line of natural defense against potential pathogens. Phagocytotic active of phagocytes can be measured using a phagocytosis assay. The phagocytosis assay uses fluorescently-opsonized latex beads which are contacted with phagocytic cells. After maintaining the beads in contact with the cell, fluorescent reading of cells is used to assess the degree of phagocytosis. Thus, the degree of phagocytosis from cells treated with different compounds can be compared quantifiably.
EDTA chelates Zinc. Phagocytotic immune cells were contacted with fluorescently-opsonized latex beads in the presence of ZnCl2 and EDTA to determine the effect addition of zinc-chelating EDTA changes the effects of zinc on the phagocytotic activity of phagocytotic immune cells.
(§2) 96-well plates were seeded with either phagocytic immune cells THP1 (cat #TIB202, ATCC) and U937 (cat #CRL-1593.2, ATCC) at 5×10^4 cells/well in 100 μl of RPMI-1640 medium containing 10 ng/ml phorbol myristic acid (PMA, Sigma) for 48 hr in a CO2 incubator at 37° C.
(§3) Medium was changed with 100 μl/ml of RPMI-1640 (Item #500290, Cayman). U937 cells were treated with ZnCl2 or ZnCl2 and EDTA. THP1 cells were treated with ZnO or ZnO plus EDTA. 10 μl of the Latex Beads-Rabbit IgG-FITC solution were added to each well. Plates were mixed gently and cells were incubated in a CO2 incubator at 37° C. for 24-48 hrs.
(§4) After incubation, plates were centrifuged for 5 minutes at 400×g at room temperature. Supernatant was carefully aspirated. 50 μl of Trypan blue solution was added to each well and plates were incubated for 1-2 mins at room temperature. Plates were centrifuged for 5 minutes at 400×g at room temperature. Supernatant was carefully aspirated. Fluorescent intensity was read using in plate reader at excitation 485/emission 535 nm.

THP1 = test: Phagocytosis assay with Latex Beads-Rabbit IgG-FITC, THP1 cells; assay type: cell-based; conditions: FIG. 7; for phagocytosis activity: versus EDTA control
Text: as §1, §2, §3, §4

SMILES: O=C(O)CN(CCN(CC(=O)O)CC(=O)O)CC(=O)O [EDTA]
- phagocytosis activity (U937; EDTA alone versus untreated control): No difference in phagocytosis activity

SMILES: [Cl-].[Cl-].[Zn+2] [ZnCl2]
- phagocytosis activity (U937; 12.5 μM, versus untreated control): more phagocytosis activity than untreated control cells
- phagocytosis activity (U937; 25 μM, versus untreated control): more phagocytosis activity than untreated control cells

SMILES: [O]=[Zn] [ZnO, zinc oxide]
- phagocytosis activity, comparison among the tested ZnO amounts (THP1; 6.25 μM compared with 12.5 μM and 25 μM): greatest increase
- phagocytosis activity (THP1; 6.25 μM): more phagocytosis activity than EDTA control cells
- phagocytosis activity (THP1; 12.5 μM): more phagocytosis activity than EDTA control cells
- phagocytosis activity (THP1; 25 μM): more phagocytosis activity than EDTA control cells
